Values quoted from earlier work, collected in patent US9192588B2, “Method for producing a zeaxanthin-enriched chicken egg” (JX NIPPON OIL & ENERGY CORPORATION, priority 2011, dated 2015).
Where two headings read alike, the source gives them in different places.

Conditions: human
[1] = twice the initial dose for further 6 months

SMILES: CC1=C(/C=C/C(C)=C/C=C/C(C)=C/C=C/C=C(C)/C=C/C=C(C)/C=C/C2=C(C)C[C@@H](O)CC2(C)C)C(C)(C)C[C@H](O)C1 [chemically synthesized zeaxanthin, zeaxanthin]
- blood zeaxanthin concentration after intake (12.6 mg every day for 6 months): 0.85 µM
- proportion of the increase to the intake (12.6 mg every day for 6 months): 0.06 μM/(mg/Day)
- initial blood zeaxanthin concentration (before intake): 0.04 µM
- blood zeaxanthin concentration after intake [1]: 1.09 µM
- proportion of the increase to the intake [1]: 0.01 μM/(mg/Day)
